Columns and labels:
Format in all cases: in vivo
[1] = tested on: Glycine max (soybean), cv. 'Lambert'; test: Pre-emergence application of herbicide after seed dressing with safener, crop damage; conditions: for Safener action as % damage reduction in crop plants: GLXMA; for % damage in GLXMA: four weeks
Experimental: (§1) The number of crop plant seeds required for each application rate of safener was calculated. Sufficient seeds were weighed out into glass bottles having a screw-on lid. The volume of the glass bottles was approximately twice that of the seeds weighed out. The safeners were formulated as 20 percent strength water-dispersible powders. These formulations were weighed out to give the required application rates (g of a.i./kg of seed). The samples were added to the seed in the glass containers, and sufficient water to form a suitable seed dressing was then added. The glass bottles were closed and then mounted in an overhead shaker (which turns the bottles at moderate speed for a period of up to one hour) so that the seeds were uniformly covered with the seed dressing. The bottles were opened and the seed was ready for use in pre-emergence or post-emergence experiments, as described below. The seeds which had been treated with safener and untreated seeds as controls were sown in sandy loam soil in round plastic pots of a diameter of 13 cm and covered with a layer of sandy loam of a thickness of about 1 cm. The herbicides in the form of liquid (for example emulsion concentrates) or dry (for example water-dispersible powders) formulations were diluted with deionized water to the required concentrations and applied to the surface of the soil with a spray bar using a water application rate of 300 liters per hectare. In the two experiments shown below (results see tables 2.2.1 and 2.2.2), the herbicide isoxaflutole was used as an aqueous suspension concentrate. The pots were placed in a greenhouse under favorable growth conditions. Visual scoring of the herbicidal action was carried out four weeks after the herbicide application. Evaluation was carried out on a percentage basis by comparison with untreated control plants (0%=no noticeable effect compared with the untreated plant, […]).

[2] = tested on: Zea mays (corn), cv. 'Lorenzo'; test: as above; conditions: for Safener action as % damage reduction in crop plants: ZEAMA; for % damage in ZEAMA: four weeks
Experimental: as §1

[3] = tested on: Chenopodium album; test: Pre-emergence application of herbicide and safener by the tank mix method, herbicidal action on weed; conditions: four weeks
Experimental: (§2) Seeds of various crop plants and weed species were sown in sandy loam soil in round plastic pots of a diameter of 13 cm and covered with a layer of sandy loam of a thickness of about 1 cm. Herbicides and safeners in the form of liquid (for example emulsion concentrates) or dry (for example water-dispersible powders) formulations were diluted with deionized water to the required concentration and applied to the surface of the soil with a spray bar using a water application rate of 300 liters per hectare. In the experiment shown below, the safeners were used as 20 percent strength water-dispersible powders and the herbicide isoxaflutole was used as an aqueous suspension concentrate (see table 1.1.1). The pots were placed in a greenhouse under favorable growth conditions. Visual scoring of the herbicidal action was carried out four weeks after the herbicide application. Evaluation was carried out on a percentage basis by comparison with untreated control plants (0%=no noticeable effect compared with the untreated plant, 100%=treated plant dies).

[4] = tested on: Setaria viridis; test: as above; conditions: four weeks
Experimental: as §2

[5] = tested on: Zea mays (corn), cv. 'Lorenzo'; test: Pre-emergence application of herbicide and safener by the tank mix method, crop damage; conditions: for Safener action as % damage reduction in crop plants: ZEAMA, safener 250 g a.i./ha + herbicide H1 100 g a.i./ha
Experimental: as §2

[6] = tested on: Zea mays (corn), cv. 'Lorenzo'; test: Post-emergence application of herbicide after seed dressing with safener, crop damage; conditions: for Safener action as % damage reduction in crop plants: ZEAMA; for % damage in ZEAMA: four weeks
Experimental: The number of crop plant seeds required for each application rate of safener was calculated. Sufficient seeds were weighed out into glass bottles having a screw-on lid. The volume of the glass bottles was approximately twice that of the seeds weighed out. The safeners were formulated as 20 percent strength water-dispersible powders. These formulations were weighed out to give the required application rates (g of a.i./kg of seed). The samples were added to the seed in the glass containers, and sufficient water to form a suitable seed dressing was then added. The glass bottles were closed and then mounted in an overhead shaker (which turns the bottles at moderate speed for a period of up to one hour) so that the seeds were uniformly covered with the seed dressing. The bottles were opened and the seed was ready for use in pre-emergence or post-emergence experiments, as described below. The seeds treated with safener and untreated seeds were sown in sandy loam soil in round plastic pots of a diameter of 13 cm and covered with a layer of sandy loam of a thickness of about 1 cm. The pots were placed in a greenhouse under favorable growth conditions for a period of about two to three weeks, allowing the plants to reach a growth stage of 2 to 4 leaves. The herbicides in the form of liquid (for example emulsion concentrates) or dry (for example water-dispersible powders) formulations were mixed with a standard additive (based on rapeseed oil methyl ester), diluted with deionized water to the required concentrations and applied to the green parts of the plants and the uncovered part of the soil surface with a spray bar using a water application rate of 300 liters per hectare. In the experiment shown below, the herbicide foramsulfuron was used as 20 percent strength water-dispersible powder (results see table 2.3.1). The pots were placed in a greenhouse under favorable growth conditions. Visual scoring of the herbicidal action was carried out four weeks after the herbicide application. Evaluation was carried out on a percentage base by comparison with untreated control plants (0%=no noticeable effect compared with the untreated plant, 100%=treated plant dies).

[7] = tested on: Amaranthus retroflexus; test: Post-emergence application of herbicide and safener by the tank mix method, herbicidal action on weed; conditions: four weeks
Text: (§3) Seeds of various crop plants and weed species were sown in sandy loam soil in round plastic pots of a diameter of 13 cm and covered with a layer of sandy loam of a thickness of about 1 cm. The pots were placed in a greenhouse under favorable growth conditions for a period of about two to three weeks, allowing the plants to reach a growth stage of 2 to 4 leaves. The herbicides in the form of liquid (for example emulsion concentrates) or dry (for example water-dispersible powders) formulations were mixed with a standard additive (based on rapeseed oil methyl ester), diluted with deionized water to the required concentrations and applied to the green parts of the plants and the uncovered part of the soil surface with a spray bar using a water application rate of 300 liters per hectare. In the experiment shown below, safener and the herbicide foramsulfuron were in each case used as 20 percent strength water-dispersible powder (results see table 1.2.1). The pots were placed in a greenhouse under favorable growth conditions. Visual scoring of the herbicidal action was carried out four weeks after the herbicide application. Evaluation was carried out on a percentage basis by comparison with untreated control plants (0%=no noticeable effect compared with the untreated plant, 100%=treated plant dies).

[8] = tested on: Setaria viridis; test: as above; conditions: four weeks
Text: as §3

[9] = tested on: Zea mays (corn), cv. 'Lorenzo'; test: Post-emergence application of herbicide and safener by the tank mix method, crop damage; conditions: for Safener action as % damage reduction in crop plants: ZEAMA, safener 250 g a.i./ha + herbicide H2 40 g a.i./ha; for % damage in ZEAMA: four weeks
Text: as §3

[10] = seed dressing with safener 1 g a.i./kg of seed, herbicide H1 100 g a.i./ha pre-emergence
[11] = seed dressing with safener 1 g a.i./kg of seed, then herbicide H1 100 g a.i./ha pre-emergence
[12] = safener 250 g a.i./ha + herbicide H1 100 g a.i./ha, pre-emergence tank mix
[13] = safener 250 g a.i./ha + herbicide H1 (isoxaflutole) 100 g a.i./ha, pre-emergence tank mix, visual scoring four weeks after application
[14] = seed dressing with safener 1 g a.i./kg of seed, herbicide H2 40 g a.i./ha post-emergence
[15] = seed dressing with safener 1 g a.i./kg of seed, then herbicide H2 40 g a.i./ha post-emergence
[16] = safener 250 g a.i./ha + herbicide H2 40 g a.i./ha, post-emergence tank mix
[17] = safener 250 g a.i./ha + herbicide H2 (foramsulfuron) 40 g a.i./ha, post-emergence tank mix
[18] = herbicide H1 100 g a.i./ha pre-emergence, untreated seeds (no safener)
[19] = herbicide H1 100 g a.i./ha alone, no safener, pre-emergence
[20] = herbicide H2 40 g a.i./ha alone, no safener, post-emergence

Structure (SMILES)	Safener action as % damage reduction in crop plants [1, 10] [%]	% damage in GLXMA [1, 11] [%]	Safener action as % damage reduction in crop plants [2, 10] [%]	% damage in ZEAMA [2, 11] [%]	Herbicidal action in CHEAL (in %) [3, 12] [%]	Herbicidal action in SETVI (in %) [4, 12] [%]	Safener action as % damage reduction in crop plants ([5]; pre-emergence tank mix) [%]	% damage in ZEAMA [5, 13] [%]	Safener action as % damage reduction in crop plants [6, 14] [%]	% damage in ZEAMA [6, 15] [%]	Herbicidal action as % damage in AMARE [7, 16] [%]	Herbicidal action as % damage in SETVI [8, 16] [%]	Safener action as % damage reduction in crop plants ([9]; post-emergence tank mix) [%]	% damage in ZEAMA [9, 17] [%]	other results
O=C(O)c1ccc(F)cc1O [Comp. 253, 4-fluorosalicylic acid]	63	32	69	9	90	93	83	4	78	8	91	93	82	7	
O=C(O)c1ccc(O)cc1O [Comp. 588, 4-hydroxysalicylic acid]	69	27	59	12	92	97	61	9	73	10	95	95	74	10	
CS(=O)(=O)c1cc(C(F)(F)F)ccc1C(=O)c1cnoc1C1CC1 [Herbicide H1, isoxaflutole, reference compound]															% damage in GLXMA [1, 18]: 87%; % damage in ZEAMA [2, 18]: 29%; Herbicidal action in CHEAL (in %) [3, 19]: 90%; Herbicidal action in SETVI (in %) [4, 19]: 92%; % damage in ZEAMA ([5]; herbicide H1 100 g a.i./ha alone, no safener, pre-emergence, four weeks): 23%
COc1cc(OC)nc(NC(=O)NS(=O)(=O)c2cc(NC=O)ccc2C(=O)N(C)C)n1 [Herbicide H2, foramsulfuron, reference compound]															% damage in ZEAMA ([6]; herbicide H2 40 g a.i./ha post-emergence, untreated seeds (no safener)): 37%; Herbicidal action as % damage in AMARE [7, 20]: 91%; Herbicidal action as % damage in SETVI [8, 20]: 93%; % damage in ZEAMA [9, 20]: 39%
